Results published in patent US10821091B2, “Retinoid compositions and methods of increasing immune cell-mediated killing of IDH mutant cancer cells” (UNIVERSITY OF PITTSBURGH—OF THE COMMONWEALTH SYSTEM OF …, priority 2017, dated 2020).

Assays:
[1] = test system: RBP1-transduced IDH mutant cells; assay: RBP1 overexpression with retinol: NK cytotoxicity and gene expression; type: cell-based, human
Protocol: For RBP1 overexpression studies, IDH mutant glioma cells were transduced with RBP1 expressing lentiviral vectors (Origene Inc) for 3 hours. The cells were maintained in CM containing 10 μg/ml Puromycin to select for lentivirus-transduced cells. Cells transduced with a mock lentiviral vector were used as controls.
NK cytotoxicity assay. The flow cytometric CFSE/7-AAD cytotoxicity assay was performed as previously described with slight modifications. Astrocytes or Glioma cells (5×10^5) were labeled with 500 nM CFSE (from a 1 mM stock solution in dimethyl sulfoxide [Sigma] stored at −20° C.) in PBS for 15 min at 37° C. The cells were then washed twice in complete medium and used immediately for the cytotoxicity assay. The CFSE-labeled target cells (25,000 cells) were used at E (effector):T (target) ratios of 1:10. After 6 h incubation, the cells were stained with 0.25 μg/ml of 7-AAD and analyzed by flow cytometry.
Quantitative Real time RT-PCR. 5×10^5 IDH mutant and WT astrocytes, as well as patient glioma cells were lyzed in Trizol and RNA was extracted from the cells using the Chloroform extraction method. cDNA was transcribed from the RNA using iScript cDNA synthesis kit (BioRad). Real-time PCR was performed on an CFX96 Touch™ Real-Time PCR Detection System (Bio-Rad) equipped with a 96-well reaction plate. Briefly, 2 μL cDNA was added to 5 μL of the 2×SYBR Green PCR mastermix (Thermo Scientific), 800 nM of each primer, and water was added to 10 μL. The thermal denaturation protocol was run at the end of the PCR to determine the number of products that were present in the reaction. Reactions were typically run in triplicates. The cycle number at which the reaction crossed an arbitrarily-placed threshold (CT) was determined for each gene and the relative amount of each gene to 18 S rRNA was described using the equation 2^−ΔCT where ΔCT=(CTtargetRNA−CT18S rRNA).
RBP1 overexpression reverses immune evasion in IDH mutant gliomas. […] Cells were analyzed for NK cytotoxicity and gene expression of RA pathway genes. […]

[2] = mouse, in vivo
Protocol: Mice. 6-8 week old Balb/c nude mice (CAnN.Cg-Foxn1nu/Crl) were purchased from Charles River Laboratories. Mice were injected with 10^6 IDH WT or mutant primary glioma cells sub-cutaneously in the right flank. When the tumors were about 25 mm^2, ATRA treatment was started. 10 mg/Kg ATRA was administered to mice intra-peritoneally (i.p.) every alternate day until termination of the experiment. DMSO-treated mice were used as controls. The mice were monitored for signs of drug toxicity such as weight-loss, lethargy, skin lesions and diarrhea. The tumors were measured every 3 days, and the mice were sacrificed when the tumors were about 400 mm^2. For NK depletion experiments, 6-week old B6 nude mice (B6.Cg-Foxn1nu/J) were purchased from The Jackson Laboratory. NK depletion was performed by injecting mice with 200 μg of anti-NK1.1 antibody (Biolegend) i.p. on the day ATRA treatment was started. Mice injected with 200 μg of an isotype antibody were used as controls. Mice were bled and evaluated for circulating NKs by flow cytometry.
Retinoic acid has been used as a chemotherapeutic agent in a wide variety of cancers, in pre-clinical as well as clinical applications. 13-cis-RA is the most common form of RA used in clinics, and is effective in a variety of neoplasms. Therefore, the efficacy of 13-cis RA was compared with ATRA and Bexarotene (a synthetic retinoic acid analogue) in IDH mutant gliomas.

[3] = retinol added to RBP1-transduced IDH mutant cells, to wild type expression levels

Structure (SMILES) | recognition and killing by NK cells ([1]; 10 μM retinol in medium of RBP1-transduced IDH mutant cells) | expression of NKG2D ligands (ULBP1, ULBP3) [1, 3] | expression of RA pathway genes [1, 3] | toxicity in treated mice (weight loss and wasting) [2]
CC1=C(/C=C/C(C)=C/C=C/C(C)=C/CO)C(C)(C)CCC1 [retinol] | significantly increased recognition and killing by NK cells | restored expression | restored expression | –
CC1=C(/C=C/C(C)=C/C=C/C(C)=C\C(=O)O)C(C)(C)CCC1 [13-cis RA, 13-cis retinoic acid] | – | – | – | Higher levels of toxicity
C=C(c1ccc(C(=O)O)cc1)c1cc2c(cc1C)C(C)(C)CCC2(C)C [Bexarotene] | – | – | – | Higher levels of toxicity
